Test results reported in doi:10.1101/2020.10.07.312850v1 (bioRxiv, 2020).
Non-standard residues stand in square brackets, D forms with d. Residues, ends and D or L forms follow the SMILES beside them. *: point of attachment. Palmitoyl = CCCCCCCCCCCCCCCC(=O)*

Assays:
[1] = chemical penetration enhancers, cited from earlier work; for Solubility: solvent and source not given; for LogP: source not given
[2] = Peptide human skin retention after 24 h; format: in vitro ADME
[3] = In vitro skin permeation testing, Franz type diffusion cells; format: in vitro ADME; settings: 5% (w/v) in PG, human epidermis, Franz cell, 32 °C, 24 h
[4] = system: human tyrosinase; settings: cited from earlier work
[5] = system: mushroom tyrosinase; settings: cited from earlier work
[6] = system: melanin; settings: 16 weeks of twice daily treatment; reference not given; cited from earlier work

CC12CCC(CC1=O)C2(C)C (centres unmarked) [Camphor]
Solubility [1]: 1.1 mg/mL
LogP [1]: 2.1 ± 0.3

CC1CCC(C(C)C)C(O)C1 (centres unmarked) [Menthol]
Solubility [1]: 1.5 mg/mL
LogP [1]: 3.2 ± 0.2

CCCCCCCC/C=C\CCCCCCCC(=O)O [Oleic acid]
Solubility [1]: 0.002 mg/mL
LogP [1]: 7.4 ± 0.2

CCCCCCCCCCCCCCCC(=O)N[C@@H](Cc1ccc(O)cc1)C(=O)N[C@@H](CCCNC(=N)N)C(=O)N[C@@H](CO)C(=O)N[C@@H](CCCNC(=N)N)C(=O)N[C@@H](CCCCN)C(=O)N[C@H](Cc1ccc(O)cc1)C(=O)N[C@@H](CO)C(=O)N[C@@H](CO)C(=O)N[C@@H](Cc1c[nH]c2ccccc12)C(=O)N[C@@H](Cc1ccc(O)cc1)C(N)=O [Palm-peptide] (Palmitoyl-YRSRK[dY]SSWY-NH2)
Percentage of peptide retained inside skin (dose-normalised) ([2]; MN patch, human epidermis, 24 h): < 0.1%
Highest peptide concentration in skin ([2]; estimated from skin retention after 24 h): 9.0 µg/g
Effect of CPE on skin permeation ([3]; menthol): enhancing effect
Effect of CPE on skin permeation ([3]; oleic acid): inhibitory effects

YRSRKYSSWY [Native peptide, decapeptide-12]
Competitive inhibition compared with hydroquinone [4]: stronger competitive inhibition effect
Competitive inhibition compared with hydroquinone [5]: stronger competitive inhibition effect
Skin retention of peptide after 24 h ([2]; MN patch, human epidermis, Franz cell, 32 °C, 24 h, HPLC-UV 280 nm, triplicates): No peptides were detected
Efficacy in reducing content of melanin [6]: more than 50%
